In brackets after ≈: the same amount, converted by molar mass.

44 compounds from ChEMBL document CHEMBL3045255, “Novel quinolyl-thienyl chalcones and their 2-pyrazoline derivatives with diverse substitution pattern as antileishmanial agents against Leishmania major” (Med Chem Res, 2012) can be followed below.

This assay concerns Leishmania major. The assay is described as follows: Antileishmanial activity against promastigotes form of Leishmania major after 72 hr by cell counting using neubaur chamber. The class given is functional, organism-based.
As to `Cc1cccc2cc(/C=C/C(=O)c3ccc(Cl)s3)c(Cl)nc12`, the half-inhibitory concentration (IC50) amounted to 0.65 µg/mL (≈ 1.87 µM).

`Cc1ccc2cc(C3CC(c4cc(Cl)sc4Cl)=NN3)c(Cl)nc2c1` (centres undefined) came in with a half-maximal inhibitory concentration (IC50) of 0.71 µg/mL (≈ 1.79 µM). In the case of `Cc1ccc2cc(/C=C/C(=O)c3cc(Cl)sc3Cl)c(Cl)nc2c1` it was 0.78 µg/mL (≈ 2.04 µM). `Cc1cccc2cc(C3CC(c4ccc(I)s4)=NN3)c(Cl)nc12` (centres undefined) showed an IC50 of 0.77 µg/mL (≈ 1.7 µM). In the case of `Cc1ccc2cc(C3CC(c4cc(C)sc4C)=NN3)c(Cl)nc2c1` (centres undefined) it was 0.76 µg/mL (≈ 2.14 µM); in that of `Cc1cccc2cc(/C=C/C(=O)c3sccc3Br)c(Cl)nc12`, 0.93 µg/mL (≈ 2.37 µM); in that of `Cc1cccc2cc(C3CC(c4ccsc4)=NN3)c(Cl)nc12` (centres undefined), 0.67 µg/mL (≈ 2.04 µM). In the case of `Cc1ccc2cc(/C=C/C(=O)c3ccc(Cl)s3)c(Cl)nc2c1` it was 0.81 µg/mL (≈ 2.33 µM); in that of `Cc1ccc2cc(/C=C/C(=O)c3sccc3Cl)c(Cl)nc2c1`, 0.59 µg/mL (≈ 1.69 µM).

`Cc1ccc2cc(C3CC(c4sccc4Br)=NN3)c(Cl)nc2c1` (centres undefined) gave an IC50 of 0.85 µg/mL (≈ 2.09 µM).

Consider `Cc1csc(C(=O)/C=C/c2cc3ccc(C)cc3nc2Cl)c1`, for which 0.83 µg/mL (≈ 2.53 µM) corresponded to half-maximal inhibition (IC50). `Cc1cc(C2=NNC(c3cc4cccc(C)c4nc3Cl)C2)c(C)s1` (centres undefined) showed an IC50 of 0.93 µg/mL (≈ 2.61 µM).

Turning to `Cc1ccc2cc(C3CC(c4sccc4Cl)=NN3)c(Cl)nc2c1` (centres undefined), the IC50 is 0.78 µg/mL (≈ 2.15 µM). Compound `Cc1ccsc1C(=O)/C=C/c1cc2cccc(C)c2nc1Cl` had a half-inhibitory concentration (IC50) of 0.94 µg/mL (≈ 2.87 µM). In the case of `Cc1csc(C2=NNC(c3cc4cccc(C)c4nc3Cl)C2)c1` (centres undefined) it was 0.74 µg/mL (≈ 2.16 µM).

With `Cc1ccc2cc(C3CC(c4ccc(I)s4)=NN3)c(Cl)nc2c1` (centres undefined), the half-maximal inhibitory concentration (IC50) was determined as 0.88 µg/mL (≈ 1.94 µM). For `Cc1ccc2cc(C3CC(c4ccc(Br)s4)=NN3)c(Cl)nc2c1` (centres undefined) the value was 0.93 µg/mL (≈ 2.29 µM); for `Cc1cccc2cc(/C=C/C(=O)c3cc(Cl)sc3Cl)c(Cl)nc12`, 0.85 µg/mL (≈ 2.22 µM). For `Cc1cccc2cc(C3CC(c4ccc(Cl)s4)=NN3)c(Cl)nc12` (centres undefined) the value was 0.75 µg/mL (≈ 2.07 µM).

`Cc1csc(C2=NNC(c3cc4ccc(C)cc4nc3Cl)C2)c1` (centres undefined) displayed an IC50 of 0.87 µg/mL (≈ 2.54 µM). The compound `Cc1ccc2cc(C3CC(c4ccc(Cl)s4)=NN3)c(Cl)nc2c1` (centres undefined) returned an IC50 of 0.83 µg/mL (≈ 2.29 µM). Regarding `Cc1ccc(C2=NNC(c3cc4cccc(C)c4nc3Cl)C2)s1` (centres undefined), inhibition was half-maximal at 0.89 µg/mL (≈ 2.6 µM) (IC50). For `Cc1cccc2cc(/C=C/C(=O)c3ccsc3)c(Cl)nc12` the value was 0.61 µg/mL (≈ 1.94 µM); for `Cc1csc(C(=O)/C=C/c2cc3cccc(C)c3nc2Cl)c1`, 0.59 µg/mL (≈ 1.8 µM). For `Cc1ccsc1C1=NNC(c2cc3cccc(C)c3nc2Cl)C1` (centres undefined) the value was 0.78 µg/mL (≈ 2.28 µM); for `Cc1ccc2cc(/C=C/C(=O)c3ccc(I)s3)c(Cl)nc2c1`, 0.84 µg/mL (≈ 1.91 µM); for `Cc1ccc(C(=O)/C=C/c2cc3cccc(C)c3nc2Cl)s1`, 0.61 µg/mL (≈ 1.86 µM).

Compound `Cc1cccc2cc(/C=C/C(=O)c3ccc(Br)s3)c(Cl)nc12` yielded an IC50 of 0.78 µg/mL (≈ 1.99 µM).

Compound `Cc1ccc2cc(/C=C/C(=O)c3ccc(C)s3)c(Cl)nc2c1` gave an IC50 of 0.74 µg/mL (≈ 2.26 µM). In the case of `Cc1cccc2cc(/C=C/C(=O)c3sccc3Cl)c(Cl)nc12` it was 0.78 µg/mL (≈ 2.24 µM); in that of `Cc1ccc2cc(C3CC(c4ccsc4)=NN3)c(Cl)nc2c1` (centres undefined), 0.94 µg/mL (≈ 2.87 µM); in that of `Cc1ccc2cc(C3CC(c4ccc(C)s4)=NN3)c(Cl)nc2c1` (centres undefined), 0.89 µg/mL (≈ 2.6 µM). `Cc1cc(C(=O)/C=C/c2cc3cccc(C)c3nc2Cl)c(C)s1` returned an IC50 of 0.73 µg/mL (≈ 2.14 µM).

`Cc1cccc2cc(/C=C/C(=O)c3ccc(I)s3)c(Cl)nc12` showed a half-maximal inhibitory concentration (IC50) of 0.67 µg/mL (≈ 1.52 µM). In the case of `Cc1cccc2cc(C3CC(c4ccc(Br)s4)=NN3)c(Cl)nc12` (centres undefined) it was 0.93 µg/mL (≈ 2.29 µM); in that of `Cc1ccc2cc(C3CC(c4sccc4C)=NN3)c(Cl)nc2c1` (centres undefined), 0.76 µg/mL (≈ 2.22 µM); in that of `Cc1ccc2cc(/C=C/C(=O)c3cc(C)sc3C)c(Cl)nc2c1`, 0.62 µg/mL (≈ 1.81 µM). For `Cc1ccc2cc(/C=C/C(=O)c3ccsc3)c(Cl)nc2c1` the value was 0.88 µg/mL (≈ 2.8 µM); for `Cc1ccc2cc(/C=C/C(=O)c3sccc3C)c(Cl)nc2c1`, 0.92 µg/mL (≈ 2.81 µM). For `Cc1ccc2cc(/C=C/C(=O)c3ccc(Br)s3)c(Cl)nc2c1` the value was 0.91 µg/mL (≈ 2.32 µM); for `Cc1cccc2cc(C3CC(c4cc(Cl)sc4Cl)=NN3)c(Cl)nc12` (centres undefined), 0.79 µg/mL (≈ 1.99 µM). Compound `Cc1cccc2cc(C3CC(c4sccc4Cl)=NN3)c(Cl)nc12` (centres undefined) displayed an IC50 of 0.84 µg/mL (≈ 2.32 µM). Consider `Cc1ccc2cc(/C=C/C(=O)c3sccc3Br)c(Cl)nc2c1`, for which the IC50 is 0.71 µg/mL (≈ 1.81 µM).

In turn, `Cc1cccc2cc(C3CC(c4sccc4Br)=NN3)c(Cl)nc12` (centres undefined) returned an IC50 of 0.94 µg/mL (≈ 2.31 µM).
